Reference: patent US11655308B2, “HM-3 fusion protein and application thereof” (TASLY BIOPHARMACEUTICALS CO., LTD., priority 2017, dated 2023)
Marks after values point to notes of the source that are not given here.

How the values were obtained:
Type in all cases: cell-based
[1] = test system: mice splenic lymphocyte proliferation stimulated by ConA
Description: Experimental method: mice orbit was by bloodletting to death, and immediately immersed in 75% ethanol for 5-10 min, and then the spleen was removed on a clean bench and placed in PBS. The spleen was placed on a sterile cell strainer (200 mesh) and ground with a syringe nozzle; during grinding process, PBS was added continuously; the slurry was collected and centrifuged (1000 rpm for 5 min), then cells were washed 3 times with Tris-ammonium chloride solution, and washed again with a medium, and then re-suspended in the medium. Finally, trypan blue living cell staining was performed on the cells, and the survival rate was more than 95%. The concentration of viable cells was adjusted to 2×10^6/mL. […] was added to each well of a 96-well plate, meanwhile, ConA (concanavalin to simulate splenocyte proliferation) and drugs were added to each well. Six duplicates were set in each group.
The 96-well plate was incubated for 48 h in a 5% CO2 incubator at 37° C. 5 mg/mL of MTT was added to the 96-well plate, 20 μL for each well, and then it was incubated continuously for 4 h in the incubator. The culture medium in the 96-well plate was discarded and 100 μL DMSO was added to each well and mixed gently. Absorbance was measured by a microplate reader at the wavelength of 570 nm and reference wavelength of 630 nm.
Proliferation inhibition rate (PI) was calculated according to formula:
[formula] wherein, Atest is the absorbance of dosing group, and Acontrol is the absorbance of negative control. Test results were expressed as mean±SD, and statistical T test was performed. *P<0.05 indicates significant difference, **P<0.01 indicates extremely significant difference. Based upon the results, the efficacy of the fusion protein against rheumatoid arthritis was screened.
In the P4 control group, TSL-4 fusion protein served as a control agent.

[2] = test system: Rat chondrocyte; experiment: Influence of TSL-4 on viability of chondrocytes (MTT); design: key to MTT test value: absorbance at 570 nm (MTT)
Description: (§1) At the end of incubation according to the experimental plan, 10 μL of 5 mg/ml MTT was added to each experimental group based upon 1/10 of the cell culture volume, so that the cells were incubated with MTT in the incubator for 4 hours. Afterwards, supernatant was carefully discarded, and 200 μL of dimethyl sulfoxide (DMSO) was added for mixing well, then the absorbance was measured on a microplate reader at a test wavelength of 570 nm. Calculating formula of relative cell activity ratio (%): a mean value of the absorbance (per well) in the experimental group/the absorbance in the control group multiplies by 100%. […] The difference between each group was analyzed by Prism 7.0, and tested by one-way ANOVA. *P<0.05 means statistical difference, **P<0.01 means significant statistical difference, and […] means extremely significant statistical difference.
The concentration of TSL-4 should be selected within 0.1, 0.3, 1, 3, 9, 27 μM.
In early experiment, the TSL-4 at each concentration had no effect on cell viability, therefore, it was diluted to 0.23 μM from 29.3 μM according to a dilution ratio of 1:5 based upon the concentration (293 μM) of the primary TSL-4 solution.

[3] = test system: Rat chondrocyte; experiment: Protective effect of TSL-4 on chondrocytes injured by hydrogen peroxide (MTT)
Description: The culture medium was replaced to different experimental groups in the following day with a dose volume of 100 μl and incubated for 24 or 48 hours respectively.
as §1
In order to detect the protective effect of TSL-4 on chondrocytes injured by hydrogen peroxide, the experiment was divided into three groups control group (no hydrogen peroxide and TSL-4, only adding fresh culture medium), hydrogen peroxide modeling group (only adding hydrogen peroxide cell culture medium containing different concentrations) and TSL-4 administration group (containing hydrogen peroxide). In order to detect the protective effect of TSL-4 on chondrocytes injured by hydrogen peroxide, TSL-4 and hydrogen peroxide were cultured with chondrocytes for 24 hours. The dosage of hydrogen peroxide was selected within 0.1, 0.25, 0.5 and 1 mM; the TSL-4 dosage was 0.23, 1.17, 5.86, 29.3
In the presence of different doses of H2O2, TSL-4 at proper concentration and chondrocytes were cultured for 24 h, and the relative cell viability in each administration group (relative absorbance percentage to the control group) was expressed as the following X±SD.
In the presence of the molding agent H2O2 at 0.25, 0.35, 0.5 mM, 1.17 and 5.86 μM TSL-4 were cultured with chondrocytes for 24 h, and the relative cell viability in each administration group (relative absorbance percentage to the control group) was expressed as the followings X±SD.

mIgG4-Fc-(GGGGS)3-HM-3 [TSL-4]
optimal (best) inhibition rate of splenic lymphocyte proliferation ([1]; ConA 5 μg/mL, 48 h, MTT, best of the tested concentrations): 63.3% | inhibition rate compared with the positive control group ([1]; positive group Dexamethasone 50 μmol/L): higher than that of the positive control group | inhibition ratio of mice splenic lymphocyte proliferation relative to group ConA ([1]; second round (Table 3)): enhanced significantly | MTT test value ([2]; 0.1 μM TSL-4, 24 h (Table 24, low-dose), 0 μM 1.23): 1.26 | MTT test value ([2]; 0.23 μM TSL-4, 24 h (Table 25), 0 μM 1.68): 1.59 | MTT test value ([2]; 0.3 μM TSL-4, 24 h (Table 24, low-dose), 0 μM 1.23): 1.2 | MTT test value ([2]; 1 μM TSL-4, 24 h (Table 23), 0 μM 1.43): 1.59 | MTT test value ([2]; 1 μM TSL-4, 24 h (Table 24, low-dose), 0 μM 1.23): 1.15 | MTT test value ([2]; 1 μM TSL-4, 48 h (Table 23), 0 μM 1.70): 1.43 | MTT test value ([2]; 1 μM TSL-4, 72 h (Table 23), 0 μM 1.51): 1.61 | MTT test value ([2]; 1.17 μM TSL-4, 24 h (Table 25), 0 μM 1.68): 1.4 | MTT test value ([2]; 3 μM TSL-4, 24 h (Table 23), 0 μM 1.43): 1.67 | MTT test value ([2]; 3 μM TSL-4, 24 h (Table 24, low-dose), 0 μM 1.23): 1.08 | MTT test value ([2]; 3 μM TSL-4, 48 h (Table 23), 0 μM 1.70): 1.43 | MTT test value ([2]; 3 μM TSL-4, 72 h (Table 23), 0 μM 1.51): 1.52 | MTT test value ([2]; 5.86 μM TSL-4, 24 h (Table 25), 0 μM 1.68): 1.39 | MTT test value ([2]; 9 μM TSL-4, 24 h (Table 23), 0 μM 1.43): 1.72 | MTT test value ([2]; 9 μM TSL-4, 48 h (Table 23), 0 μM 1.70): 1.51 | MTT test value ([2]; 9 μM TSL-4, 72 h (Table 23), 0 μM 1.51): 1.57 | MTT test value ([2]; 27 μM TSL-4, 24 h (Table 23), 0 μM 1.43): 1.45 | MTT test value ([2]; 27 μM TSL-4, 48 h (Table 23), 0 μM 1.70): 1.30 | MTT test value ([2]; 27 μM TSL-4, 72 h (Table 23), 0 μM 1.51): 1.31 | MTT test value ([2]; 29.3 μM TSL-4, 24 h (Table 25), 0 μM 1.68): 1.24 | influence on cell viability ([2]; 0.1-3 μM TSL-4, 24 h): no significant difference | influence on cell viability ([2]; 0.23-29.3 μM TSL-4, 24 h): no significant change in cell viability | influence on cell viability ([2]; 1-27 μM TSL-4, 24, 48 and 72 hours): no significant influence on cell viability | relative cell viability (relative absorbance percentage to the control group) ([3]; 0.23 μM TSL-4, 0.1 mM H2O2, 24 h, 0 μM 106.87 ± 9.52): 84.23 ± 20.42*** | relative cell viability (relative absorbance percentage to the control group) ([3]; 0.23 μM TSL-4, 0.25 mM H2O2, 24 h, 0 μM 70.96 ± 11.61): 71.42 ± 6.74 | relative cell viability (relative absorbance percentage to the control group) ([3]; 0.23 μM TSL-4, 0.5 mM H2O2, 24 h, 0 μM 1.68 ± 0.82): 3.17 ± 1.45 | relative cell viability (relative absorbance percentage to the control group) ([3]; 0.23 μM TSL-4, 1 mM H2O2, 24 h, 0 μM 3.57 ± 0.60): 0.89 ± 0.32 | relative cell viability (relative absorbance percentage to the control group) ([3]; 1.17 μM TSL-4, 0.1 mM H2O2, 24 h, 0 μM 106.87 ± 9.52): 100.01 ± 5.02 | relative cell viability (relative absorbance percentage to the control group) ([3]; 1.17 μM TSL-4, 0.25 mM H2O2, 24 h, 0 μM 70.96 ± 11.61): 85.11 ± 8.08* | relative cell viability (relative absorbance percentage to the control group) ([3]; 1.17 μM TSL-4, 0.5 mM H2O2, 24 h, 0 μM 1.68 ± 0.82): 16.56 ± 5.91* | relative cell viability (relative absorbance percentage to the control group) ([3]; 1.17 μM TSL-4, 1 mM H2O2, 24 h, 0 μM 3.57 ± 0.60): 1.14 ± 1.07 | relative cell viability (relative absorbance percentage to the control group) ([3]; 5.86 μM TSL-4, 0.1 mM H2O2, 24 h, 0 μM 106.87 ± 9.52): 102.36 ± 9.75 | relative cell viability (relative absorbance percentage to the control group) ([3]; 5.86 μM TSL-4, 0.25 mM H2O2, 24 h, 0 μM 70.96 ± 11.61): 86.35 ± 4.20* | relative cell viability (relative absorbance percentage to the control group) ([3]; 5.86 μM TSL-4, 0.5 mM H2O2, 24 h, 0 μM 1.68 ± 0.82): 10.27 ± 7.08 | relative cell viability (relative absorbance percentage to the control group) ([3]; 5.86 μM TSL-4, 1 mM H2O2, 24 h, 0 μM 3.57 ± 0.60): 1.21 ± 0.70 | relative cell viability (relative absorbance percentage to the control group) ([3]; 29.3 μM TSL-4, 0.1 mM H2O2, 24 h, 0 μM 106.87 ± 9.52): 76.46 ± 5.45**** | relative cell viability (relative absorbance percentage to the control group) ([3]; 29.3 μM TSL-4, 0.25 mM H2O2, 24 h, 0 μM 70.96 ± 11.61): 59.72 ± 3.49 | relative cell viability (relative absorbance percentage to the control group) ([3]; 29.3 μM TSL-4, 0.5 mM H2O2, 24 h, 0 μM 1.68 ± 0.82): 3.87 ± 6.00 | relative cell viability (relative absorbance percentage to the control group) ([3]; 29.3 μM TSL-4, 1 mM H2O2, 24 h, 0 μM 3.57 ± 0.60): 0.43 ± 0.53 | viability of chondrocytes stimulated by H2O2 ([3]; 0.23/29.3 μM TSL-4, 0.1 mM H2O2): relatively significantly inhibiting effect | relative cell viability (relative absorbance percentage to the control group) ([3]; repeated trial: 1.17 μM TSL-4, 0.25 mM H2O2, 24 h, 0 μM 78.77 ± 7.45): 85.31 ± 7.36 | relative cell viability (relative absorbance percentage to the control group) ([3]; repeated trial: 1.17 μM TSL-4, 0.35 mM H2O2, 24 h, 0 μM 63.96 ± 6.46): 68.54 ± 3.62 | relative cell viability (relative absorbance percentage to the control group) ([3]; repeated trial: 1.17 μM TSL-4, 0.5 mM H2O2, 24 h, 0 μM 37.10 ± 6.53): 41.46 ± 2.08 | relative cell viability (relative absorbance percentage to the control group) ([3]; repeated trial: 5.86 μM TSL-4, 0.25 mM H2O2, 24 h, 0 μM 78.77 ± 7.45): 87.36 ± 7.85 | viability of chondrocytes injured by H2O2 ([3]; repeated trial: 5.86 μM TSL-4, 0.35 mM H2O2): significantly improve the viability of chondrocytes | relative cell viability (relative absorbance percentage to the control group) ([3]; repeated trial: 5.86 μM TSL-4, 0.35 mM H2O2, 24 h, 0 μM 63.96 ± 6.46): 73.29 ± 4.39 | relative cell viability (relative absorbance percentage to the control group) ([3]; repeated trial: 5.86 μM TSL-4, 0.5 mM H2O2, 24 h, 0 μM 37.10 ± 6.53): 45.07 ± 6.36
